# Tested on: Wister male rats under a high fat and high cholesterol diet
# Experiment: Lipid lowering and body weight effects of (14R,13S)-CRDL hydrochloride salt in Wister rats
# Type: in vivo
# Procedure: Male Wister rats were used as another animal model to examine the in vivo effects of (14R,13S)-CRDL in plasma lipid levels.
# In one experiment, 18 Wister male rats under a high fat and high cholesterol diet were divided into 2 groups. One group was given (14R,13S)-CRDL hydrochloride salt orally at a daily dose of 75 mg/kg by an orogastric tube for 4 weeks, and the control group received daily treatment of equal amount of vehicle (0.1 M sodium phosphate, pH 3.5). Serum lipid levels were measured weekly.
# At the end of treatment, Rats were sacrificed and blood and sera were collected to measure several critical parameters for liver function and kidney function. […] Kidney function and blood glucose level were not changed by the treatment (FIG. 11E).
# The food intake and body weight gains were measured every week during the 4-week treatment period. […] In the first week, the amount of food consumed was decreased in CRDL-treated group. […] The ability of CRDL to activate AMPK signaling pathway to increase energy expenditure and to reduce fat accumulation likely contributes to this weight reducing effect.
# [1] = (14R,13S)-CRDL hydrochloride salt orally 75 mg/kg daily, 4 weeks
# [2] = end of 4-week treatment, 75 mg/kg daily orally
# [3] = end of 4-week treatment, 75 mg/kg daily orally, vs control group
smiles,measurement,setting,value
"COc1cc2c(cc1OC)[C@H]1[C@@H](C)c3ccc(OC)c(OC)c3CN1CC2 [CRDL, 14R,13S-(+)-corydaline]",body weight,"4 weeks, 75 mg/kg daily orally, high fat and high cholesterol diet",maintained constant
same,"LDL-c level, % of control",[1],25.6%
same,"LDL-c level, % of day 0",[1],22.4%
same,"TC, % compared to the control group",[1],33.8%
same,"TC, % of the pretreatment level",[1],33.0%
same,"TG level, % of the control",[1],29%
same,"TG level, % of the pretreatment level (day 0)",[1],27%
same,adverse effects during the entire treatment,[1],No any adverse effects were observed
same,blood glucose level,[2],not changed
same,"kidney function (BUN, CREA)",[2],not changed
same,serum level of ALT,[3],statistically lower
same,serum level of AST,[3],statistically lower

# Reference: patent US8815900B2, “Compounds and compositions for reducing lipid levels” (CVI Pharmaceuticals Limited, priority 2007, dated 2014)
